Reference: patent US12416034B2, “Recombinant production of steviol glycosides” (EVOLVA SA, priority 2011, dated 2025)

Legend:
[1] = In vitro assay of lysates of EUGT11-expressing cells after permeabilization treatment; format: biochemical, S. cerevisiae; details: lysates of EUGT11 transformants, untreated or after LiAC/PEG, Triton X100 or LS treatment
Protocol: Experiments were done to establish conditions for permeabilization in E. coli and in yeast. Growing cells (S. cerevisiae or E. coli) were treated with different concentrations/combinations of permeabilization agents: toluene, chloroform and ethanol for permeabilization of S. cerevisiae, and guanidine, lactic acid, DMSO and/or Triton X-100 for permeabilization of E. coli. Tolerance of both model organisms to high concentrations of RebA and other potential substrates also was evaluated. The permeabilization was measured by the amount of RebD produced from a EUGT11-expressing organism after incubation in a RebA containing medium (feeding experiment). Enzyme activity was monitored before and after exposure to the permeabilizing agents by lysing the cells and analyzing the activity of the released UGTs in an in vitro assay.
Treatment with Triton X-100 0.3% or 0.5%, however, increased the amount of RebD above background levels (see FIG. 18) while sustaining the activity of EUGT11. For Triton X-100 assays, overnight cultures were washed three times in PBS buffer. Cells corresponding to 6 OD600 units were resuspended in PBS containing 0.3% or 0.5% Triton X-100 respectively. […]
Lysates from transformants expressing EUGT11 were able to convert some RebA into RebD (8 to 50 μM were measured in the reactions) when cells were untreated or after treatment with LiAC/PEG or Triton X100.

[2] = UDP-glucose regenerating activity of sucrose synthase; format: biochemical; details: 1 mM UDP, ~200 mM sucrose, 37° C., 24 h
Protocol: Experiments were performed to evaluate the UDP-glucose regenerating activity of the purified GST-AtSUS1 and GST-SrSUS1. In vitro assays were conducted in 100 mM Tris-HCl pH=7.5 and 1 mM UDP (final concentration). Either ˜2.4 μg of purified GST-AtSUS1, ˜0.15 μg of GST-SrSUS1, or ˜1.5 μg commercial BSA (New England Biolabs, Ipswich, MA) were also added. Reactions were done in presence or absence of ˜200 mM sucrose and incubated at 37° C. for 24 h. Product UDP-glucose was measured by HPLC as described in the analytical section. AtSUS1 produced ˜0.8 mM UDP-glucose when sucrose was present. […] The lack of activity observed for SrSUS1 could be explained by the poor quality and concentration of the purified enzyme. UDP-glucose production by AtSUS1 was sucrose dependent and, therefore, it was concluded that AtSUS1 can be used in a coupled reaction to regenerate the UDP-glucose used by EUGT1 or other UGTs for small molecule glycosylation (FIG. 11, above).

[3] = Coupled AtSUS/EUGT11 reaction, RebD formation; format: biochemical; details: ~200 mM sucrose, 1 mM UDP, 100 μM RebA, GST-AtSUS1 and GST-EUGT11
Protocol: SUS catalyzes the formation of UDP-glucose and fructose from sucrose and from UDP as depicted in FIG. 11. This UDP-glucose then can be used by EUGT11 for glycosylation of RebA to produce RebD. In vitro assays as described above were performed, adding ˜200 mM sucrose, 1 mM UDP, 100 μM RebA, ˜1.6 μg purified GST-AtSUS1 and ˜0.8 μg GST-EUGT11. Formation of product, RebD, was evaluated by LC-MS. When AtSUS, EUGT11, sucrose and UDP were mixed with RebA, 81±5 μM of RebD was formed. The reaction was dependent on the presence of AtSUS, EUGT11 and sucrose. The conversion rate was similar to what has been observed previously using UDP-glucose provided extraneously.

[4] = tested on: ERG9; assay: Amorphadiene production (indirect FPP accumulation), GC-MS; format: cell-based, S. cerevisiae; details: 72 h, construct in front of ERG9
Excerpt: DNA fragments encompassing an ERG9 promoter upstream sequence (for homologous recombination), an expression cassette for the gene (NatR) that confers resistance to Nourseothricin, a CYC1 promoter (SEQ ID NO: 185, FIG. 21), a 5′ UTR sequence with a stemloop structure, and an ERG9 ORF sequence (for homologous recombination) were generated by PCR. DNA fragments that contained either the CYC1 promoter or the KEX2 promoter (SEQ ID NO: 186) but no stemloops were also generated as controls. The flanking ERG9 sequences for recombination as well as the stemloop structure were introduced via the PCR oligos. The DNA fragments were transformed into an S. cerevisiae host strain that subsequently was selected on nourseothricin containing growth plates. […]
The Amorpha-4,11-diene Synthase (ADS) gene catalyzes the chemical reaction that turns one FPP molecule into Amorpha-4,11-diene in the plant Artemisia annua. […] Amorpha-4,11-diene production was measured and compared to the standard compound caryophyllene, as described by (Ro et al. 2006. Nature 440(7086):940-943; Paradise et al. Biotechnol Bioeng. 2008 Jun. 1; 100(2):371-8; Newman et al. Biotechnol Bioeng 95(4):684-691).
Engineered yeast strains were grown in SC 2% glucose with uracil dropped out. […] 10 μl of the dodecane layer was sampled and diluted 100 fold in ethyl acetate for quantification by GC-MS […]

[5] = tested on: Saccharomyces cerevisiae EFSC1923; assay: Steviol 19-O-monoside production in EFSC1923 with plasmid-expressed enzymes; format: cell-based; details: shake flask, co-expressed with KAH-3
Protocol: The 150 nucleotides at the 5′ end of the Zea mays CDP synthase coding sequence in Table 15 (SEQ ID NO:157, see FIG. 14) was deleted, the remainder of the coding sequence was provided with a new translation start ATG, and the truncated sequence was operably linked to the GPD1 promoter in the multicopy plasmid p423GPD in Saccharomyces cerevisiae EFSC1923. Plasmid p423GPD is described in Mumberg, D et al, Gene, 156: 119-122(1995). EFSC1923 and EFSC1923 plus p423GPD-Z.m.tCDPS were grown in for 96 hours in selective yeast medium containing 4% glucose. The amount of steviol 19-O-monoside produced by EFSC1923+p423GPD-Z.m.tCDPS (the truncated Zea mays CDPS) under these conditions was approximately 2.5 fold more than that produced by EFSC1923 without the plasmid.
The Arabidopsis thaliana KAH coding sequence from Table 15 was inserted in a multicopy plasmid designated p426GPD, under the control of the GPD1 promoter. Plasmid p426GPD is described in Mumberg, D et al, Gene. 156: 119-122(1995).
EFSC1923 was transformed with both p423GPD-Z.m.tCDPS and p426 p426GPD-A.t.KAH.
A bifunctional CDPS-KS from Gibberella fujikuroi (NCBI Accession no: Q9UVY5.1, FIG. 15) was cloned and compared to the truncated CDPS-5. […]

With CCCCCCCCCCCCN(C)CC(=O)O [LS, N-lauryl sarcosine] the “RebD measured in reactions of lysates” value [1] was “no RebD was measured”.

With “AtSUS1: A. thaliana SUS1 sucrose synthase” the UDP-glucose produced [2] was about 0.8 mM and the RebD formed [3] was 81 ± 5 µM.

For “SEQ ID NO: 181: heterologous insert TGAATTCGTTAACGAATTC behind the CYC1 promoter in front of ERG9 (expressed or natural sequence)”, the “increased production of amorphadiene” value [4] was 2.5 ×.

B1: bifunctional CDPS-KS: bifunctional CDPS-KS from Gibberella fujikuroi, NCBI Accession no Q9UVY5.1 (protein, listed as Gibberella fujikuroi)
chain: MPGKIENGTPKDLKTGNDFVSAAKSLLDRAFKSHHSYYGLCSTSCQVYDTAWVAMIPKTRDNVKQWLFPECFHYLLKTQAADGSWGSLPTTQTAGILDTASAVLALLCHAQEPLQILDVSPDEMGLRIEHGVTSLKRQLAVWNDVEDTNHIGVEFIIPALLSMLEKELDVPSFEFPCRSILERMHGEKLGHFDLEQVYGKPSSLLHSLEAFLGKLDFDRLSHHLYHGSMMASPSSTAAYLIGATKWDDEAEDYLRHVMRNGAGHGNGGISGTFPTTHFECSWIIATLLKVGFTLKQIDGDGLRGLSTILLEALRDENGVIGFAPRTADVDDTAKALLALSLVNQPVSPDIMIKVFEGKDHFTTFGSERDPSLTSNLHVLLSLLKQSNLSQYHPQILKTTLFTCRWWWGSDHCVKDKWNLSHLYPTMLLVEAFTEVLHLIDGGELSSLFDESFKCKIGLSIFQAVLRIILTQDNDGSWRGYREQTCYAILALVQARHVCFFTHMVDRLQSCVDRGFSWLKSCSFHSQDLTWTSKTAYEVGFVAEAYKLAALQSASLEVPAATIGHSVTSAVPSSDLEKYMRLVRKTALFSPLDEWGLMASIIESSFFVPLLQAQRVEIYPRDNIKVDEDKYLSIIPFTWVGCNNRSRTFASNRWLYDMMYLSLLGYQTDEYMEAVAGPVFGDVSLLHQTIDKVIDNTMGNLARANGTVHSGNGHQHESPNIGQVEDTLTRFTNSVLNHKDVLNSSSSDQDTLRREFRTFMHAHITQIEDNSRFSKQASSDAFSSPEQSYFQWVNSTGGSHVACAYSFAFSNCLMSANLLQGKDAFPSGTQKYLISSVMRHATNMCRMYNDFGSIARDNAERNVNSIHFPEFTLCNGTSQNLDERKERLLKIATYEQGYLDRALEALERQSRDDAGDRAGSKDMRKLKIVKLFCDVTDLYDQLYVIKDLSSSMK
In the case of B1, the “activity in producing steviol 19-O-monoside relative to EFSC1923 with the KAH-3 alone” value [5] is reported as “about 5.8 times”.
